According to ChEMBL document CHEMBL1201862, “PubChem BioAssay data set” (2004):
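Following 48 hours of exposure in 96-well plates, responses at five concentrations were used to interpolate endpoints linearly. The concentration for 50% growth inhibition is given as GI50.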 Active and inactive are the calls of the source. Rule as the data show it: active = GI50 up to about 1.1 µM and inactive = higher.

Experiments:
Test in all cases: NCI tumour cell line growth inhibition, 48 h
M14 = system: M14
NCI-H226 = system: NCI-H226
LOX IMVI = system: LOX IMVI
SF-295 = system: SF-295
Hs-578T = system: Hs-578T
SF-539 = system: SF-539
UO-31 = system: UO-31
NCI-H23 = system: NCI-H23
OVCAR-8 = system: OVCAR-8
MDA-MB-231 = system: MDA-MB-231
NCI/ADR-RES = system: NCI/ADR-RES
SK-MEL-28 = system: SK-MEL-28
OVCAR-4 = system: OVCAR-4
SNB-19 = system: SNB-19
A549 = system: A549
HL-60 = system: HL-60
HCT-15 = system: HCT-15
IGROV-1 = system: IGROV-1
K562 = system: K562
UACC-62 = system: UACC-62
HOP-92 = system: HOP-92
A498 = system: A498
EKVX = system: EKVX
SNB-75 = system: SNB-75
HT-29 = system: HT-29
ACHN = system: ACHN
MOLT-4 = system: MOLT-4
SK-MEL-5 = system: SK-MEL-5
RXF 393 = system: RXF 393
KM12 = system: KM12
Malme-3M = system: Malme-3M
SW-620 = system: SW-620
MDA-N = system: MDA-N
CCRF-CEM = system: CCRF-CEM
786-0 = system: 786-0
HCT-116 = system: HCT-116
TK-10 = system: TK-10
PC-3 = system: PC-3
NCI-H522 = system: NCI-H522
NCI-H460 = system: NCI-H460
SR = system: SR
U-251 = system: U-251
MCF7 = system: MCF7
SF-268 = system: SF-268
DU-145 = system: DU-145
CAKI-1 = system: CAKI-1
UACC-257 = system: UACC-257
RPMI-8226 = system: RPMI-8226
SK-MEL-2 = system: SK-MEL-2
SN12C = system: SN12C
COLO 205 = system: COLO 205
OVCAR-5 = system: OVCAR-5
MDA-MB-435 = system: MDA-MB-435
T47D = system: T47D

**Q.** What does the source list for C[C@]12CCC(=O)C=C1CC[C@@H]1[C@@H]2CC[C@]2(C)C(=O)[C@H](n3ccnc3)C[C@@H]12?
**A.** GI50 (M14): > 100 µM (inactive); GI50 (NCI-H226): > 100 µM (inactive); GI50 (LOX IMVI): > 100 µM (inactive); GI50 (SF-295): > 100 µM (inactive); GI50 (Hs-578T): > 100 µM (inactive); GI50 (SF-539): > 100 µM (inactive); GI50 (UO-31): > 100 µM (inactive); GI50 (NCI-H23): > 100 µM (inactive); GI50 (OVCAR-8): > 100 µM (inactive); GI50 (MDA-MB-231): > 100 µM (inactive); GI50 (NCI/ADR-RES): > 100 µM (inactive); GI50 (SK-MEL-28): > 100 µM (inactive); GI50 (OVCAR-4): > 100 µM (inactive); GI50 (SNB-19): > 100 µM (inactive); GI50 (A549): > 100 µM (inactive); GI50 (HL-60): 21.9 µM (inactive); GI50 (HCT-15): > 100 µM; GI50 (IGROV-1): > 100 µM (inactive); GI50 (K562): 75.3 µM (inactive); GI50 (UACC-62): > 100 µM (inactive); GI50 (HOP-92): > 100 µM (inactive); GI50 (A498): > 100 µM (inactive); GI50 (EKVX): > 100 µM (inactive); GI50 (SNB-75): > 100 µM (inactive); GI50 (HT-29): 27.4 µM (inactive); GI50 (ACHN): > 100 µM (inactive); GI50 (MOLT-4): 35.2 µM (inactive); GI50 (SK-MEL-5): 63.1 µM (inactive); GI50 (RXF 393): > 100 µM (inactive); GI50 (KM12): > 100 µM (inactive); GI50 (Malme-3M): > 100 µM (inactive); GI50 (SW-620): > 100 µM (inactive); GI50 (MDA-N): > 100 µM (inactive); GI50 (CCRF-CEM): 58.6 µM (inactive); GI50 (786-0): > 100 µM (inactive); GI50 (HCT-116): > 100 µM (inactive); GI50 (TK-10): > 100 µM (inactive); GI50 (PC-3): > 100 µM (inactive); GI50 (NCI-H522): > 100 µM (inactive); GI50 (NCI-H460): > 100 µM (inactive); GI50 (SR): 74.1 µM (inactive); GI50 (U-251): > 100 µM (inactive); GI50 (MCF7): > 100 µM (inactive); GI50 (SF-268): > 100 µM (inactive); GI50 (DU-145): > 100 µM (inactive); GI50 (CAKI-1): > 100 µM (inactive); GI50 (UACC-257): > 100 µM (inactive); GI50 (RPMI-8226): > 100 µM (inactive); GI50 (SK-MEL-2): > 100 µM (inactive); GI50 (SN12C): > 100 µM (inactive); GI50 (COLO 205): > 100 µM (inactive); GI50 (OVCAR-5): > 100 µM (inactive); GI50 (MDA-MB-435): > 100 µM (inactive)

**Q.** Which results are given for CC(C)=CC(=O)O[C@H]1C(=O)O[C@@H]2C[C@H]3[C@H](C)C(=O)C(O[C@@H]4O[C@H](CO)[C@@H](O)[C@H](O)[C@H]4O)=C[C@]3(C)[C@H]3[C@@H](O)[C@H](O)[C@]4(C(=O)O)OC[C@]32[C@@H]14 [BRUCEOSIDE D]?
**A.** GI50 (NCI-H23): 56.1 µM (inactive); GI50 (IGROV-1): 54 µM (inactive); GI50 (UACC-62): 97.5 µM (inactive); GI50 (A498): 79.1 µM (inactive); GI50 (SNB-75): 86.1 µM (inactive); GI50 (SW-620): 79.4 µM (inactive); GI50 (MDA-N): 66.2 µM (inactive); GI50 (786-0): 96.6 µM (inactive); GI50 (TK-10): 71.9 µM (inactive); GI50 (PC-3): 71 µM (inactive); GI50 (CAKI-1): 90.8 µM (inactive); GI50 (UACC-257): 98.9 µM (inactive); GI50 (COLO 205): 65.8 µM (inactive); GI50 (OVCAR-5): 84.5 µM (inactive); GI50 (MDA-MB-435): 66.5 µM (inactive); GI50 (T47D): 51.9 µM (inactive)
